# Data reported in patent EP4781993A1, “ANTIBACTERIAL COMPOSITION AND ANTIBACTERIAL DRUG” (Shenzhen China Resources Gosun Pharmaceuticals Co., Ltd., priority 2023, dated 2025).
# Structures can show the parent of a compound that is named as a salt.
# How the values were obtained:
# [1] = tested on: KPC-2 producing Klebsiella pneumoniae; test: Broth-microdilution MIC (CLSI M07-A11) against clinical isolates; type: cell-based; design: Drug concentration: unit: mg/L; conditions: for MIC range / MIC50 / MIC90 / Mode: 12 strains; for MIC range / MIC50 / MIC90: MIC = ceftobiprole concentration (groups A2, B2, C2, D2, E2: inhibitor alone); for MIC50 / MIC90: Klebsiella pneumoniae; for MIC50: read-out: MIC50; for MIC90: read-out: MIC90; for Mode: mode of MIC; for antibacterial activity: verdict in words; for Drug concentration: unit not given in Table 3
# Description: (§1) As recommended by CLSI (Clinical and Laboratory Standards Institute) M07-A11 (2018 edition), the Broth-microdilution method is adopted to determine the minimum inhibitory concentration (MIC) of ceftobiprole and zidebactam against clinical isolates. It should be noted that, in the present disclosure, MIC50 refers to the minimum drug concentration that inhibits the growth of 50% of the tested bacteria, and MIC90 refers to the minimum drug concentration that inhibits the growth of 90% of the tested bacteria.
# (§2) Antibacterial drug: ceftobiprole, manufacturer: Shenyang Sanjiu Pharmaceutical, content: 92.1%, batch number: YF/BALP141/000. Zidebactam, manufacturer: Target M01 company, batch number: 149661. Zidebactam, as described above, the English name is Zidebactam, and the chemical name is: (2S,5R)-7-oxo-2-(2-((R)-piperidine-3-carbonyl)hydrazine-1-carbonyl)-1,6-diazabicyclo[3.2.1]octan-6-yl hydrogen sulfate.
# (§3) Tested strains: a total of 24 genotypic strains producing KPC or OXA β-lactamase. Specifically, the tested strains include 24 strains of Klebsiella pneumoniae, including 12 KPC-2 producing strains and 12 OXA-232 producing strains.
# (§4) Quality control strains: Escherichia coli ATCC 25922, (KPC-2 producing) Klebsiella pneumoniae ATCC BAA-1705, and (NDM-1 producing) Klebsiella pneumoniae ATCC BAA-2146.
# (§5) Medium: cation-adjusted Mueller-Hinton broth (CAMHB), a product of BBL Company, USA.
# (§6) Inoculum size: Pure isolated colonies were adjusted with normal saline to 0.5 McFarland turbidity. After appropriate dilution, the suspension was added to the wells of a 96-well U-bottom microplate (containing 50 µL antibacterial drug solution). The inoculum size was 5 × 10^5 CFU/mL.
# (§7) Culture conditions: air environment, 35°C ± 2°C, 16 to 20 hours.
# (§8) Preparation of Antibacterial Drug Solution : Ceftobiprole and zidebactam were taken separately, dissolution and dilution were performed according to the antibacterial drug reference to the CLSI standards and the drug package insert, A1 to A6, a total of 6 groups of antibacterial drug solutions, were prepared, among which, group A1 was the control group containing solely the single agent ceftobiprole, and group A2 was the control group containing solely the single agent zidebactam. Different antibacterial drug solutions with ceftobiprole concentrations ranging from 128 mg/L to 0.06 mg/L were respectively included in groups A1 and A3 to A6, and different antibacterial drug solutions with zidebactam concentrations ranging from 128 mg/L to 0.06 mg/L were included in group A2. The specific concentrations within the range of 128 mg/L to 0.06 mg/L in groups A1 to A6 were respectively 128 mg/L, 64 mg/L, 32 mg/L, 16 mg/L, 8 mg/L, 4 mg/L, 2 mg/L, 1 mg/L, 0.5 mg/L, 0.25 mg/L, 0.125 mg/L, or 0.06 mg/L, respectively. Table 1. Concentrations of ceftobiprole/zidebactam contained in the antibacterial drug solutions of groups A1 to A6
# (§9) Experimental results: Currently, there are no established CLSI or EUCAST breakpoints for ceftobiprole/β-lactamase inhibitor. Therefore, the antibacterial activity of ceftobiprole/β-lactamase inhibitor is evaluated in accordance with the standards for ceftobiprole. WHONET 5.6 software is used to perform statistical analysis on the results of antibacterial susceptibility test. The fractional inhibitory concentration index (FIC) for the combination of ceftobiprole and zidebactam is calculated according to Equation (1). FIC index = (MIC of drug A in combination)/(MIC of drug A alone) + (MIC of drug B in combination)/(MIC of drug B alone) [formula]
# (§10) In Equation (1), drug A is ceftobiprole, and drug B is zidebactam. […] Table 2. In vitro antibacterial activity of ceftobiprole/zidebactam against the tested bacteria in Example 1 […]
# [2] = tested on: OXA-232 producing Klebsiella pneumoniae; test: as above; type: cell-based; design: Drug concentration: unit: mg/L; conditions: for MIC range / MIC50 / MIC90 / Mode: 12 strains; for MIC range / MIC50 / MIC90: MIC = ceftobiprole concentration (groups A2, B2, C2, D2, E2: inhibitor alone); for MIC50 / MIC90: Klebsiella pneumoniae; for Mode: mode of MIC; for antibacterial activity: verdict in words; for Drug concentration: unit not given in Table 3
# Description: as §1, §2, §3, §4, §5, §6, §7, §8, §9, §10
compound,measurement,setting,value
"NCCN[C@H]1CC[C@H](CC(=O)N[C@H]2Cc3cccc(C(=O)O)c3OB2O)CC1 [Group D2, (R)-3-(2-((1r,4R)-4-((2-aminoethyl)amino)cyclohexyl)acetamido)-2-hydroxy-3,4-dihydro-2H-benzo[e][1,2]oxaborinine-8-carboxylic acid]",MIC range,[1],>128 µg/mL
same,MIC50,[1],> 128 µg/mL
same,MIC90,[1],> 128 µg/mL
same,Cumulative inhibition rate (%),[1]; MIC >128 mg/L,100%
same,Cumulative number of strains,[1]; MIC >128 mg/L,12
same,Number of strains,[1]; MIC >128 mg/L,12
same,Mode,[1],>128 mg/L
same,antibacterial activity,[1],no antibacterial activity
same,MIC range,[2],>128 µg/mL
same,MIC50,[2],> 128 µg/mL
same,MIC90,[2],> 128 µg/mL
same,Cumulative inhibition rate (%),[2]; MIC >128 mg/L,100%
same,Cumulative number of strains,[2]; MIC >128 mg/L,12
same,Number of strains,[2]; MIC >128 mg/L,12
same,Mode,[2],>128 mg/L
same,antibacterial activity,[2],no antibacterial activity
"O=C(NC1CCNCC1)[C@@H]1CC[C@@H]2CN1C(=O)N2OS(=O)(=O)O [Group C2, (1R,2S,5R)-7-oxo-2-(piperidin-4-ylcarbamoyl)-1,6-diazabicyclo[3.2.1]octan-6-yl hydrogen sulfate]",MIC50,[1],> 128 µg/mL
same,MIC90,[1],> 128 µg/mL
same,Cumulative inhibition rate (%),[1]; MIC 128 mg/L,25%
same,Cumulative number of strains,[1]; MIC 128 mg/L,3
same,Number of strains,[1]; MIC 128 mg/L,3
same,Cumulative inhibition rate (%),[1]; MIC >128 mg/L,100%
same,Cumulative number of strains,[1]; MIC >128 mg/L,12
same,Number of strains,[1]; MIC >128 mg/L,9
same,Mode,[1],>128 mg/L
same,antibacterial activity,[1],no antibacterial activity
same,MIC50,[2],> 128 µg/mL
same,MIC90,[2],> 128 µg/mL
same,Cumulative inhibition rate (%),[2]; MIC 128 mg/L,41.7%
same,Cumulative number of strains,[2]; MIC 128 mg/L,5
same,Number of strains,[2]; MIC 128 mg/L,5
same,Cumulative inhibition rate (%),[2]; MIC >128 mg/L,100%
same,Cumulative number of strains,[2]; MIC >128 mg/L,12
same,Number of strains,[2]; MIC >128 mg/L,7
same,Mode,[2],>128 mg/L
same,antibacterial activity,[2],no antibacterial activity
"O=C(NNC(=O)[C@@H]1CC[C@@H]2CN1C(=O)N2OS(=O)(=O)O)[C@@H]1CCCNC1 [Group A2, (2S,5R)-7-oxo-2-(2-((R)-piperidine-3-carbonyl)hydrazine-1-carbonyl)-1,6-diazabicyclo[3.2.1]octan-6-yl hydrogen sulfate]",MIC50,[1],> 128 µg/mL
same,MIC90,[1],> 128 µg/mL
same,Cumulative inhibition rate (%),[1]; MIC 1 mg/L,8.3%
same,Cumulative number of strains,[1]; MIC 1 mg/L,1
same,Number of strains,[1]; MIC 1 mg/L,1
same,Cumulative inhibition rate (%),[1]; MIC 128 mg/L,41.7%
same,Cumulative number of strains,[1]; MIC 128 mg/L,5
same,Number of strains,[1]; MIC 128 mg/L,4
same,Cumulative inhibition rate (%),[1]; MIC >128 mg/L,100%
same,Cumulative number of strains,[1]; MIC >128 mg/L,12
same,Number of strains,[1]; MIC >128 mg/L,7
same,Mode,[1],>128 mg/L
same,Drug concentration,"[1]; strain 18-W09-043 (kpn, KPC-2)",>128
same,Drug concentration,"[1]; strain 18-W09-045 (kpn, KPC-2)",>128
same,Drug concentration,"[1]; strain 18-W09-046 (kpn, KPC-2)",128
same,Drug concentration,"[1]; strain 18-W09-047 (kpn, KPC-2)",128
same,Drug concentration,"[1]; strain 18-W09-049 (kpn, KPC-2)",>128
same,Drug concentration,"[1]; strain 18-W09-050 (kpn, KPC-2)",128
same,Drug concentration,"[1]; strain 18-W09-051 (kpn, KPC-2)",>128
same,Drug concentration,"[1]; strain 18-W13-043 (kpn, KPC-2)",>128
same,Drug concentration,"[1]; strain 18-W13-044 (kpn, KPC-2)",>128
same,Drug concentration,"[1]; strain 18-W13-045 (kpn, KPC-2)",128
same,Drug concentration,"[1]; strain 18-W13-046 (kpn, KPC-2)",>128
same,Drug concentration,"[1]; strain 18-W13-047 (kpn, KPC-2)",1
same,MIC50,[2],64 µg/mL
same,MIC90,[2],> 128 µg/mL
same,Cumulative inhibition rate (%),[2]; MIC 1 mg/L,8.3%
same,Cumulative number of strains,[2]; MIC 1 mg/L,1
same,Number of strains,[2]; MIC 1 mg/L,1
same,Cumulative inhibition rate (%),[2]; MIC 2 mg/L,16.7%
same,Cumulative number of strains,[2]; MIC 2 mg/L,2
same,Number of strains,[2]; MIC 2 mg/L,1
same,Cumulative inhibition rate (%),[2]; MIC 4 mg/L,33.3%
same,Cumulative number of strains,[2]; MIC 4 mg/L,4
same,Number of strains,[2]; MIC 4 mg/L,2
same,Cumulative inhibition rate (%),[2]; MIC 8 mg/L,41.7%
same,Cumulative number of strains,[2]; MIC 8 mg/L,5
same,Number of strains,[2]; MIC 8 mg/L,1
same,Cumulative inhibition rate (%),[2]; MIC 64 mg/L,50%
same,Cumulative number of strains,[2]; MIC 64 mg/L,6
same,Number of strains,[2]; MIC 64 mg/L,1
same,Cumulative inhibition rate (%),[2]; MIC 128 mg/L,66.7%
same,Cumulative number of strains,[2]; MIC 128 mg/L,8
same,Number of strains,[2]; MIC 128 mg/L,2
same,Cumulative inhibition rate (%),[2]; MIC >128 mg/L,100%
same,Cumulative number of strains,[2]; MIC >128 mg/L,12
same,Number of strains,[2]; MIC >128 mg/L,4
same,Mode,[2],>128 mg/L
same,Drug concentration,"[2]; strain 20-W4-001 (kpn, OXA-232)",>128
same,Drug concentration,"[2]; strain 20-W4-002 (kpn, OXA-232)",>128
same,Drug concentration,"[2]; strain 20-W4-003 (kpn, OXA-232)",4
same,Drug concentration,"[2]; strain 20-W4-004 (kpn, OXA-232)",>128
same,Drug concentration,"[2]; strain 20-W4-005 (kpn, OXA-232)",128
same,Drug concentration,"[2]; strain 20-W4-007 (kpn, OXA-232)",2
same,Drug concentration,"[2]; strain 20-W4-008 (kpn, OXA-232)",64
same,Drug concentration,"[2]; strain 20-W4-009 (kpn, OXA-232)",128
same,Drug concentration,"[2]; strain 20-W4-010 (kpn, OXA-232)",1
same,Drug concentration,"[2]; strain 20-W4-011 (kpn, OXA-232)",8
same,Drug concentration,"[2]; strain 20-W4-012 (kpn, OXA-232)",>128
same,Drug concentration,"[2]; strain 20-W4-013 (kpn, OXA-232)",4
"(3R,6S)-2-hydroxy-3-[[2-(2-thienyl)acetyl]amino]-1,2-oxaborinane-6-acetic acid [Group B2]",MIC range,[1],>128 µg/mL
same,Cumulative inhibition rate (%),[1]; MIC >128 mg/L,100%
same,Cumulative number of strains,[1]; MIC >128 mg/L,12
same,Number of strains,[1]; MIC >128 mg/L,12
same,Mode,[1],>128 mg/L
same,antibacterial activity,[1],no antibacterial activity
same,MIC range,[2],>128 µg/mL
same,Cumulative inhibition rate (%),[2]; MIC >128 mg/L,100%
same,Cumulative number of strains,[2]; MIC >128 mg/L,12
same,Number of strains,[2]; MIC >128 mg/L,12
same,Mode,[2],>128 mg/L
same,antibacterial activity,[2],no antibacterial activity
